Experiments:
[1] = test system: expanded cord blood CD34+ cells, granulocyte (CD15+/CD14−) and monocyte (CD14+/CD15−) lineage; assay: Myeloid (granulocyte and monocyte) Differentiation Culture after Expansion Culture (Example 38); format: cell-based, human
Method: At days 21 and 63, CD34+ enriched cells were placed into Differentiation Cultures, described below.
Differentiation cultures were initiated using Erythroid, Myeloid (granulocyte and monocyte), and Megakaryocyte HemaTox kits from STEMCELL technologies following the manufacturer's instructions. In brief, lineage media was prepared by adding cytokine cocktails for erythrocyte (SCF, IL-3, and EPO), myeloid (i.e. mixed granulocyte/monocyte, SCF, TPO, G-CSF, and GM-CSF) or megakaryocyte (SCF, IL-6, IL-9 and TPO) lineage differentiation to their respective kits' media, then adding approximately 30-100 CD34+ cells for erythroid or myeloid cultures, or 300-1000 CD34+ cells for megakaryoid cultures. Exact cell numbers plated were quantified for later analysis. All incubations for Differentiation Culture took place at 3% oxygen (controlled by nitrogen) and 5% CO2.
Following seven days of erythroid or myeloid cultures, or ten days for megakaryoid cultures, differentiated cell output was quantified using flow cytometry. Erythroid output was quantified using anti-CD71 and anti-CD235a antibodies, and megakaryocyte lineage output was quantified using anti-CD41 and anti-CD42b antibodies. Granulocyte and monocyte lineage outputs were assessed in tandem, using CD14 and CD15 antibodies, with granulocyte lineage cells being CD15+/CD14−, and monocyte lineage cells being CD14+/CD15−.
A number of quantities were calculated to assess the effect of expansion of CD34+ cells in the +Formula I Condition on the output of lineage differentiated cells. “Per-Assayed-CD34+ Cell Output” describes the output of differentiated cells per CD34+ cell placed into Differentiation Culture, and is calculated by dividing the total number of lineage-positive cells by the input CD34+ cell number quantified at Differentiation Culture initiation at day 1, 21, or 63. “Per-expanded-day-1-CD34+ cell output” describes the number of differentiated cells of a given lineage that may be produced from a single CD34+ cell following both Expansion Cell Culture (if expanded) followed by Differentiation Culture, and is calculated by multiplying Per-Assayed-CD34+ Cell Output by the fold expansion of CD34+ cells from day 1 to the day of analysis, either day 21 or day 63. […] We calculated therapeutic units for granulocyte precursors, using 50 billion (5×10^10) cells per dose as a conservative benchmark (Valentini, C. G., Farina, F., Pagano, L., and Teofili, L. (2017). Granulocyte Transfusions: A Critical Reappraisal. Biol. Blood Marrow Transplant. 23, 2034-2041). […]

[2] = test system: expanded cord blood CD34+ cells, lymphoid progenitors; assay: Lymphoid Progenitor Differentiation Culture after Expansion Culture (Example 41); format: cell-based, human; details: for Fold Enhancement (vs. unexpanded) of CD10+ lineage output: 14 days Lymphoid Differentiation Culture
From the text: Lymphoid Progenitor Differentiation Cultures (L Diff Cultures) were initiated prior to culture in +Formula I (Day 1 L Diff Culture), following 14 days of culture in +Formula I (14-day +Formula I-expanded L Diff Culture), following 14 days of culture in control conditions (14-day DMSO-expanded L Diff Culture) or following 21 days of culture in +Formula I (21-day +Formula I-expanded L Diff Culture).
12-well non-TC-treated plates were coated with StemSpan Lymphoid Differentiation Coating Material (STEMCELL Technologies) by incubation for two hours at room temperature. Immediately prior to initiation of L Diff Culture, wells were washed with PBS.
Purified CD34+ cells were plated at 20,000 cells per well, in Lymphoid Progenitor Expansion Medium (“LPEM”), comprising StemSpan SFEM II medium (STEMCELL Technologies) with StemSpan Lymphoid Progenitor Expansion Supplement (STEMCELL Technologies). Cells were plated in duplicate, in 500 μl/well, then placed in a humidified incubator at atmospheric oxygen and 5% CO2. Exact cell numbers dispensed per well were quantified with flow cytometry for later calculations.
On days three or five, an additional 500 μl/well of LPEM was added, then on days seven and eleven, half of the media was removed and replaced with fresh LPEM.
At seven and fourteen days, cells were analyzed via flow cytometry to quantify lymphoid lineage phenotypes of CD7+/CD5−, CD5+/CD7− and CD7+/CD5+, as well as presence of maturing B cells (CD19+), T cells (CD3+) or NK cells (CD56+).
“Per-Assayed-CD34+ Cell Output” describes the output of differentiated cells per CD34+ cell placed into Differentiation Culture, and is calculated by dividing the Corrected Count of lineage-positive cells by the number of CD34+ cells placed into quantified at Differentiation Culture initiation following 1, 14, 28, 42 or 64 days in Expansion Culture.
“Scaled Output” (or Scaled Output per CD34+ cell) describes the number of differentiated cells of a given lineage that may be produced from a single CD34+ cell following both Expansion Cell Culture (if expanded) followed by Differentiation Culture. This quantity is calculated by multiplying Per-Assayed-CD34+ Cell Output by the Fold Expansion of CD34+ cells from day 1 to the day of Differentiation Culture initiation (day 14, 28, 42 or 64). This quantity is synonymous with “per-expanded-dl-CD34+ cell output” used in Example 38 above.
“Fold Enhancement (vs. unexpanded)” was calculated to fully capture the benefit of Expansion Culture in +Formula I Conditions prior to Differentiation Culture. This quantity was calculated by dividing the Scaled Output output of a given cell population by the Per-Assayed-CD34+ Cell Output of that population from unexpanded cells placed into differentiation culture, as in the equation below. Each fold increase was calculated relative to the same number of days in differentiation culture, e.g. the fold increase of cells differentiated for six days was calculated by dividing the scaled output of expanded cells differentiated for six days by the output of unexpanded cells differentiated for six days. In the case of cells differentiated for 14 days, an exact match in unexpanded cells was not available, so output at differentiation day 13 was used as a denominator.

[3] = +Formula I expansion to day 21, then 7 days differentiation
[4] = +Formula I expansion to day 63, then 7 days differentiation
[5] = 14 days in +Formula I Expansion Culture
[6] = 21 days in +Formula I Expansion Culture

CC(C)(C)C(=O)Nc1ccc2c(c1)C(O)c1ccccc1-2 (stereo not drawn) [Compound 1.010]
fold increase of per-expanded-day-1-CD34+ cell output, monocyte lineage, over uncultured cells [1, 3]: 800 fold | fold increase of per-expanded-day-1-CD34+ cell output, total granulocyte lineage, over uncultured cells [1, 3]: 370 fold | fold increase of per-expanded-day-1-CD34+ cell output, monocyte lineage, over uncultured cells [1, 4]: 108,000 fold | fold increase of per-expanded-day-1-CD34+ cell output, total granulocyte lineage, over uncultured cells [1, 4]: 67,000 fold | Fold Enhancement (vs. unexpanded) of CD7+/CD5+ lineage output [2, 5]: 5.8 fold | Fold Enhancement (vs. unexpanded) of CD7+/CD5− lineage output [2, 5]: 6.3 fold | Fold Enhancement (vs. unexpanded) of CD7−/CD5+ lineage output [2, 5]: 11 fold | Fold Enhancement (vs. unexpanded) of CD10+ lineage output [2, 5]: 5 fold | Fold Enhancement (vs. unexpanded) of CD7+/CD5+ lineage output [2, 6]: 238 fold | Fold Enhancement (vs. unexpanded) of CD7+/CD5− lineage output [2, 6]: 46 fold | Fold Enhancement (vs. unexpanded) of CD7−/CD5+ lineage output [2, 6]: 180 fold | Fold Enhancement (vs. unexpanded) of CD10+ lineage output [2, 6]: 37 fold

Source: US20220315895A1, “METHODS OF MAKING OLIGOPOTENT AND UNIPOTENT PRECURSORS” (Transfusion Health, LLC, priority 2019, published 2022)
